Laboratory results reported in publication PMC6494997, “Studies on Isoniazid Derivatives through a Medicinal Chemistry Approach for the Identification of New Inhibitors of Urease and Inflammatory Markers” (Scientific Reports, 2019).
≈ marks a conversion by molar mass, not a printed value. Like-named read-outs stand apart in the source and are kept apart here.

Key:
urease [1] = molecular target: T1, urease (Canavalia ensiformis, UniProt P07374); assay: biochemical
Description: During the experiments all the compounds were evaluated at 0.5 mM each in triplicate.

urease [2] = molecular target: T1, urease; conditions: reported literature value of the standard; read-out: Urease Inhibition Activity IC50 ± SEM (Reported) (converted); cited from earlier work
[3] = system: ROS from zymosan activated whole blood cells; assay: Oxidative burst assay (in vitro anti-inflammatory, ROS inhibition); format: cell-based, human; conditions: for Anti-Inflammatory Activity IC50 ± SD: observed, ROS inhibition, zymosan activated whole blood cells, screening concentration 25 µg/mL, <50% inhibition = inactive; for IC50: Homo sapiens, Whole blood cell, read-out: Anti-Inflammatory Activity IC50 ± SD
Description: In this experiment all the compounds were evaluated at 25 µg/mL, each in triplicate.
All studies on human blood cells was carried out after an approval from independent ethics committee (Prof. Dr. Ghazala H. Rizwani Chair, IEC, Prof. Qamar Amin, Prof, Dr. Muddasir Uddin, Dr. Shahnaz Ghazi, Dr. SamiuzZaman, Prof. Dr. Ahsana Dar Farooq, Dr. M. Raza Shah member IEC), International Center for Chemical and Biological Sciences, University of Karachi, No: ICCBS/IEC-008-BC-2015/Protocol/1.0. Informed consents were obtained from the volunteers before drawing the blood. All the experiments were performed in accordance with relevant guidelines and regulations.

in vitro = conditions: mouse
Description: (§1) In this experiment all the compounds were evaluated at 30 µM each in triplicate.

[4] = system: 3T3 normal (mouse fibroblast) cell line; assay: 3T3 cytotoxicity assay (MTT); conditions: read-out: Cytotoxicity (3T3 Cell line) IC50 ± SD; observed; screened at 30 µM; <50% inhibition at 30 µM = inactive
Description: as §1

[5] = system: 3T3 normal (mouse fibroblast) cell line
Description: as §1

[6] = system: ROS from zymosan activated whole blood cells; design: method as in PMID 6178787, PMID 28202019; conditions: reported literature value of the standard; cited from earlier work
[7] = 3T3 cytotoxicity assay (MTT); conditions: mouse
Description: as §1

[8] = observed, screening concentration 0.5 mM, <50% inhibition = inactive, Insoluble = partially soluble in HPLC methanol of the protocol, read-out: Urease Inhibition Activity IC50 ± SEM
[9] = observed, screening concentration 0.5 mM, <50% inhibition = inactive, Insoluble = partially soluble in HPLC methanol of the protocol

T1 sequence (P07374 whole entry, looked up): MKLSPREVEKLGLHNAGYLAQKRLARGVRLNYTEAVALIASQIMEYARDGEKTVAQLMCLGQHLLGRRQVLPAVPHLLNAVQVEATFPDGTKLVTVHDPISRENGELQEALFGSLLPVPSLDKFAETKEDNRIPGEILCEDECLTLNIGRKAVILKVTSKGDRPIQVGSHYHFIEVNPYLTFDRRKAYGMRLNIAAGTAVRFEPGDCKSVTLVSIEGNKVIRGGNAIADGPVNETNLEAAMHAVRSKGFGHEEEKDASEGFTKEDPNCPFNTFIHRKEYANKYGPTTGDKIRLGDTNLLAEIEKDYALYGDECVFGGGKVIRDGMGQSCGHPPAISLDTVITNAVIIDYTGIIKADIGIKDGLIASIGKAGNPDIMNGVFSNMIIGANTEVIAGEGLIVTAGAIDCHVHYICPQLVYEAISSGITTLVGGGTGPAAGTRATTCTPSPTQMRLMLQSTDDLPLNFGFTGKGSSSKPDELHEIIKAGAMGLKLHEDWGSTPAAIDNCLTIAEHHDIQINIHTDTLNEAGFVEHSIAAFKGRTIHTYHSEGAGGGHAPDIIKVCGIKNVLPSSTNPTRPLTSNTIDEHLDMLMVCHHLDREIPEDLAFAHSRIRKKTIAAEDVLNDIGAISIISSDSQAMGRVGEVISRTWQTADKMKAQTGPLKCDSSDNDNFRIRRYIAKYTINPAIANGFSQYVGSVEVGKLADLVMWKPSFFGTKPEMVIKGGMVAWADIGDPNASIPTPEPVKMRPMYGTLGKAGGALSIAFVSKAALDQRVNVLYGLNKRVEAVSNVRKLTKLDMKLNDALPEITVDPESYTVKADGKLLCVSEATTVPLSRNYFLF

Row | SMILES | Anti-Inflammatory Activity IC50 ± SD [3] | melting point | IC50 (in vitro) | IC50 (urease [1]) | other results
1 | CC(=O)NO [Aetohydaoxamic acid, acetohydroxamic acid, reference compound] | – | – | – | – | IC50 (urease [1]; [8]): 20.3 ± 0.4 µM; IC50 (urease [2]): 17.2 µM
2 | O=C(NNC(=S)Nc1ccccc1F)c1ccncc1 [Compound 3, N-(2-Fluorophenyl)-2-isonicotinoylhydrazinecarbothioamide] | Inactive | 241 to 242 °C | > 30 µM | – | Urease Inhibition Activity IC50 ± SEM (urease [1]; [9]): Inactive^c
3 | O=C(NNC(=S)Nc1cccc(Cl)c1Cl)c1ccncc1 [Compound 4, N-(2,3-Dichlorophenyl)-2-isonicotinoylhydrazinecarbothioamide] | Inactive | 198 to 199 °C | > 30 µM | 38.8 ± 0.35 µM | –
4 | O=C(NNC(=S)Nc1cc(Cl)ccc1Cl)c1ccncc1 [Compound 5, N-(2,5-Dichlorophenyl)-2-isonicotinoylhydrazinecarbothioamide] | – | 172 to 173 °C | > 30 µM | 36.5 ± 0.14 µM | IC50 [3]: 18.5 ± 1 µg/mL (≈ 54.2 µM)
5 | O=C(NNC(=S)Nc1c(Cl)cccc1Cl)c1ccncc1 [Compound 6, N-(2,6-Dichlorophenyl)-2-isonicotinoylhydrazinecarbothioamide] | Inactive | 127 to 128 °C | > 30 µM | – | Urease Inhibition Activity IC50 ± SEM (urease [1]; [9]): Insoluble
6 | O=C(NNC(=S)Nc1c(F)cccc1F)c1ccncc1 [Compound 7, N-(2,6-Difluorophenyl)-2-isonicotinoylhydrazinecarbothioamide] | Inactive | 248 to 249 °C | > 30 µM | 46.3 ± 0.43 µM | –
7 | O=C(NNC(=S)Nc1cc(C(F)(F)F)ccc1Cl)c1ccncc1 [Compound 8, N-(2-Chloro-5-(trifluoromethyl)phenyl)-2-isonicotinoylhydrazinecarbothioamide] | Inactive | 183 to 184 °C | > 30 µM | 44.4 ± 0.43 µM | –
8 | O=C(NNC(=S)Nc1ccc(Cl)c(C(F)(F)F)c1)c1ccncc1 [Compound 9, N-(4-Chloro-3-(trifluoromethyl)phenyl)-2 isonicotinoylhydrazinecarbothioamide] | – | 231 to 232 °C | > 30 µM | 14.2 ± 1.38 µM | IC50 [3]: 26.7 ± 2.5 µg/mL (≈ 71.2 µM)
9 | N#Cc1ccc(NC(=S)NNC(=O)c2ccncc2)cc1 [Compound 10, N-(4-Cyanophenyl)-2-isonicotinoylhydrazinecarbothioamide] | Inactive | 162 to 163 °C | > 30 µM | 15.7 ± 1.32 µM | –
10 | O=C(NNC(=S)Nc1ccc(OC(F)(F)F)cc1)c1ccncc1 [Compound 11, 2-Isonicotinoyl-N-(4-(trifluoromethoxy)phenyl) hydrazine carbothioamide] | Inactive | – | – | – | IC50 (urease [1]; [8]): 13.2 ± 1.64 µM; IC50 [4]: > 30 µM
11 | O=C(NNC(=S)Nc1c(F)c(F)c(F)c(F)c1F)c1ccncc1 [Compound 12, 2-Isonicotinoyl-N-(perfluorophenyl) hydrazinecarbothioamide] | 27.7 ± 2.4 µg/mL | – | – | – | IC50 (urease [1]; [8]): 12.3 ± 1.04 µM; IC50 [5]: > 30 µM
12 | O=C(NNC(=S)NC1CCCC1)c1ccncc1 [Compound 13, N-Cyclopentyl-2-isonicotinoylhydrazinecarbothioamide] | Inactive | 223 to 224 °C | > 30 µM | 13.6 ± 1.61 µM | –
13 | O=C(NNC(=S)Nc1ccccc1Br)c1ccncc1 [Compound 14, N-(2-Bromophenyl)-2-isonicotinoylhydrazinecarbothioamide] | Inactive | 156 to 157 °C | > 30 µM | 35.8 ± 1.89 µM | –
14 | O=C(NNC(=S)Nc1ccc(F)cc1F)c1ccncc1 [Compound 15, N-(2,4-Difluorophenyl)-2-isonicotinoylhydrazinecarbothioamide] | Inactive | 191 to 192 °C | > 30 µM | 34.1 ± 0.45 µM | –
15 | O=C(NNC(=S)Nc1cccc(F)c1)c1ccncc1 [Compound 16, N-(3-Fluorophenyl)-2-isonicotinoylhydrazinecarbothioamide] | – | 174 to 175 °C | > 30 µM | 21.5 ± 1.3 µM | IC50 [3]: 29.7 ± 1.7 µg/mL (≈ 102 µM)
16 | O=C(NNC(=S)Nc1cccc(I)c1)c1ccncc1 [Compound 17, N-(3-Iodophenyl)-2-isonicotinoylhydrazinecarbothioamide] | – | 192 to 193 °C | > 30 µM | 14.7 ± 1.01 µM | IC50 [3]: 36.9 ± 3 µg/mL (≈ 92.7 µM)
17 | O=C(NNC(=S)Nc1ccc(Cl)cc1)c1ccncc1 [Compound 18, N-(4-Chlorophenyl)-2-isonicotinoylhydrazine carbothioamide] | Inactive | – | 29.5 ± 1.9 µM | 26.3 ± 1.59 µM | –
18 | O=C(NNC(=S)Nc1ccc(F)cc1)c1ccncc1 [Compound 19, N-(4-Fluorophenyl)-2-isonicotinoylhydrazinecarbothioamide] | Inactive | 191 to 192 °C | > 30 µM | 12.7 ± 0.8 µM | –
19 | COc1ccc(NC(=S)NNC(=O)c2ccncc2)cc1 [Compound 20, 2-Isonicotinoyl-N-(4-methoxyphenyl) hydrazinecarbothioamide] | Inactive | – | – | – | IC50 (urease [1]; [8]): 22 ± 1.15 µM; IC50 [5]: > 30 µM
20 | O=C(NNC(=S)Nc1cc(Cl)c(Cl)cc1Cl)c1ccncc1 [Compound 21, Isonicotinoyl-N-(2,4,5-trichlorophenyl) hydrazinecarbothioamide] | Inactive | – | – | – | IC50 (urease [1]; [8]): 28.2 ± 1.48 µM; IC50 [5]: > 30 µM
21 | O=C(NNC(=S)Nc1cccc(Br)c1)c1ccncc1 [Compound 22, N-(3-Bromophenyl)-2-isonicotinoylhydrazinecarbothioamide] | – | 192 to 193 °C | > 30 µM | 22.1 ± 1.91 µM | IC50 [3]: 25.1 ± 0.4 µg/mL (≈ 71.5 µM)
22 | O=C(NNC(=S)NC1CCCCC1)c1ccncc1 [Compound 23, N-Cyclohexyl-2-isonicotinoylhydrazinecarbothioamide] | – | 212 to 213 °C | > 30 µM | 22.4 ± 1.83 µM | IC50 [3]: 12.3 ± 1.2 µg/mL (≈ 44.2 µM)
23 | O=C(NNC(=S)Nc1ccccc1)c1ccncc1 [Compound 24, 2-Isonicotinoyl-N-phenylhydrazinecarbothioamide] | Inactive | – | > 30 µM | 63.2 ± 2 µM | –
24 | CCCCCCNC(=S)NNC(=O)c1ccncc1 [Compound 25, N-Hexyl-2-isonicotinoylhydrazinecarbothioamide] | Inactive | 215 to 216 °C | > 30 µM | – | Urease Inhibition Activity IC50 ± SEM (urease [1]; [9]): Insoluble
25 | O=C(NNC(=S)Nc1cccc(N=C=S)c1)c1ccncc1 [Compound 26] | – | 195 to 196 °C | – | – | –
26 | O=C(NNC(=S)Nc1cccc([N+](=O)[O-])c1)c1ccncc1 [Compound 27, 2-Isonicotinoyl-N-(3-nitrophenyl) hydrazinecarbothioamide] | Inactive | – | – | – | Urease Inhibition Activity IC50 ± SEM (urease [1]; [9]): Insoluble^d; IC50 [5]: > 30 µM
27 | CC(C)Cc1ccc(C(C)C(=O)O)cc1 (stereo not shown) [Ibuprofen, reference compound] | – | – | – | – | IC50 [3]: 11.2 ± 1.9 µg/mL (≈ 54.3 µM); Anti-Inflammatory Activity IC50 ± SD (reported) [6]: 12.97 ± 0.23 µg/mL
28 | NNC(=O)c1ccncc1 [Isoniazid(1), Isoniazid] | Inactive | – | – | – | Urease Inhibition Activity IC50 ± SEM (urease [1]; [9]): Inactive; IC50 [7]: 28.5 ± 1.2 µM
